Measured values from patent publication US20170281566A1, “COMBINATIONS OF LSD1 INHIBITORS FOR THE TREATMENT OF HEMATOLOGICAL MALIGNANCIES” (HOFFMANN-LA ROCHE INC., priority 2016, published 2017).

How the values were obtained:
Assay type in all cases: cell-based
THP-1 cells = test: Viability assay (96 hours), Alamar Blue, single agent
Description: (§1) AML cell lines were maintained in RPMI 10% FBS medium at 37° C. in a humidified incubator with controlled 5% CO2 atmosphere. Cell freezing and thawing was performed following recommendation from ATCC. Genetic profiling of the cell lines used is available in table 2. […] Three wells were reserved for each experimental condition; medium-only and vehicle-treated controls were also added for background correction and normalization respectively. […] Alamar Blue® is a cell viability indicator that uses the natural reducing power of living cells to convert resazurin to the fluorescent molecule, resorufin^43.

OCI-AML3 cells = test: as above
Description: as §1

MV(4;11) cells = test: as above
Description: as §1

MOLM-13 cells = test: as above
Description: as §1

HL-60 cells = test: as above
Description: as §1

KASUMI-1 cells = test: as above
Description: as §1

MOLT4 cells = test: Viability assay (10 days), Alamar Blue, single agent
Description: MOLT4 cells were maintained in RPMI 10% FBS medium at 37° C. in a humidified incubator with controlled 5% CO2 atmosphere. Cell freezing and thawing was performed following recommendation from ATCC. Genetic profiling of the cell lines used is available in table 4.
2.1.2 Viability Assays (10 Days)
Three wells were reserved for each experimental condition; medium-only and vehicle-treated controls were also added for background correction and normalization respectively. After seeding, 50 μL of medium containing 8 1:3 serial dilution of ORY-1001 were added to the cells (range 0.015-100 nM). Cells were then incubated for 6 days at 37° C. in a controlled 5% CO2 atmosphere. On the sixth day, 1004, of medium with serial dilutions of ORY-1001 (as described previously) or vehicle were added to the cells. Medium without compound (100μ) was added to background control.
After 4 additional days of incubation, cell viability was evaluated using the Alamar Blue® staining as detailed in the section 1.1.2.

OCI-AML2 cells = test: Viability assay (96 hours), Alamar Blue, single agent; conditions: Homo sapiens, OCI-AML2, 96 h, read-out: EC50 (viability)
Description: as §1

N[C@H]1CC[C@H](N[C@@H]2C[C@H]2c2ccccc2)CC1 [ORY-1001, (trans)-N1-((1R,2S)-2-phenylcyclopropyl)cyclohexane-1,4-diamine]
EC50 (viability) (THP-1 cells; THP-1, 96 hours, single agent): sub-nanomolar | EC50 (viability) (OCI-AML3 cells; OCI-AML3, 96 hours, single agent): sub-nanomolar | EC50 (viability) (MV(4;11) cells; MV(4;11), 96 hours, single agent): sub-nanomolar | EC50 (viability) (MOLM-13 cells; MOLM-13, 96 hours, single agent): sub-nanomolar | EC50 (viability) (HL-60 cells; HL-60, 96 hours, single agent): sub-nanomolar | EC50 (viability) (KASUMI-1 cells; KASUMI-1, 96 hours, single agent): sub-nanomolar | EC50 (viability) (MOLT4 cells; MOLT4, 10 days of treatment, single agent): sub-nanomolar | Effect on viability of MOLT-4 cells (MOLT4 cells; shorter treatment (96 hours), data not shown): not affecting the viability

O=C(CCCCCCNC(=O)c1cnc(N(c2ccccc2)c2ccccc2)nc1)NO [Rocilinostat, Ricolinostat, reference compound]
EC50 (THP-1 cells; Homo sapiens, THP-1, 96 h, read-out: EC50 (viability)): 500 to 3000 nM | EC50 (OCI-AML3 cells; Homo sapiens, OCI-AML-3, 96 h, read-out: EC50 (viability)): 500 to 3000 nM | EC50 (MV(4;11) cells; Homo sapiens, MV4-11, 96 h, read-out: EC50 (viability)): 500 to 3000 nM | EC50 (MOLM-13 cells; Homo sapiens, MOLM-13, 96 h, read-out: EC50 (viability)): 500 to 3000 nM | EC50 (HL-60 cells; Homo sapiens, HL-60, 96 h, read-out: EC50 (viability)): 500 to 3000 nM | EC50 (KASUMI-1 cells; Homo sapiens, Kasumi 1, 96 h, read-out: EC50 (viability)): 500 to 3000 nM | EC50 (OCI-AML2 cells): 500 to 3000 nM
